Experimental data taken from patent US6737383B1, “Herbicidal oxadiazolidines” (priority 1999, dated 2004).

Tests used:
blackgrass = assay: Test B pre/postemergence blackgrass; format: in vivo, Alopecurus myosuroides
In short: (§1)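 Test chemicals in a non-phytotoxic solvent mixture with surfactant were sprayed preemergence onto planted seeds and postemergence onto plants 2 to 18 cm tall (1- to 4-leaf stage). After twelve to sixteen days in a greenhouse, injury was visually rated against untreated controls from 0 (no effect) to 10 (complete control).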

surinam grass = assay: Test B pre/postemergence surinam grass; format: in vivo, Brachiaria decumbens
In short: as §1

cocklebur = assay: Test B pre/postemergence cocklebur; format: in vivo, Xanthium strumarium
In short: as §1

corn = assay: Test B pre/postemergence corn; format: in vivo, Zea mays
In short: as §1

giant foxtail = assay: Test B pre/postemergence giant foxtail; format: in vivo, Setaria faberii
In short: as §1

morningglory = assay: Test B pre/postemergence morningglory; format: in vivo, Ipomoea hederacea
In short: as §1

pigweed = assay: Test B pre/postemergence pigweed; format: in vivo, Amaranthus retroflexus
In short: as §1

rape = assay: Test B pre/postemergence rape; format: in vivo, Brassica napus
In short: as §1

soybean = assay: Test B pre/postemergence soybean; format: in vivo, Glycine max
In short: as §1

sugar beet = assay: Test B pre/postemergence sugar beet; format: in vivo, Beta vulgaris
In short: as §1

velvetleaf = assay: Test B pre/postemergence velvetleaf; format: in vivo, Abutilon theophrasti
In short: as §1

wheat = assay: Test B pre/postemergence wheat; format: in vivo, Triticum aestivum
In short: as §1

wild oat = assay: Test B pre/postemergence wild oat; format: in vivo, Avena fatua
In short: as §1

rice = assay: Test B flood test rice; format: in vivo, Oryza sativa; conditions: for Rice plant response rating: scale of 0 to 10 where 0 is no effect and 10 is complete control
In short: (§2)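 Flood test on plants grown to the 2-leaf stage; treated plants kept in greenhouse twelve to sixteen days, then visually rated against controls on a 0 (no effect) to 10 (complete control) scale.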

smallflower flatsedge = assay: Test B flood test smallflower flatsedge; format: in vivo, Cyperus difformis; conditions: for S. Flatsedge plant response rating: scale of 0 to 10 where 0 is no effect and 10 is complete control
In short: as §2

duck salad = assay: Test B flood test duck salad; format: in vivo, Heteranthera limosa; conditions: for Plant response rating, Ducksalad: scale 0 to 10, 0 is no effect, 10 is complete control; for Ducksalad plant response rating: scale of 0 to 10 where 0 is no effect and 10 is complete control
In short: as §2

[1] = Postemergence, Rate 125 g/ha, scale 0 to 10, 0 is no effect, 10 is complete control
[2] = Postemergence, Rate 250 g/ha, scale 0 to 10, 0 is no effect, 10 is complete control
[3] = Postemergence, Rate 500 g/ha, scale of 0 to 10 where 0 is no effect and 10 is complete control
[4] = Preemergence, Rate 62 g/ha, scale 0 to 10 (0 no effect, 10 complete control)
[5] = Preemergence, Rate 125 g/ha, scale of 0 to 10 where 0 is no effect and 10 is complete control
[6] = Preemergence, Rate 250 g/ha, scale of 0 to 10 where 0 is no effect and 10 is complete control
[7] = Preemergence, Rate 500 g/ha, scale 0 to 10, 0 is no effect, 10 is complete control
[8] = Rate 62 g/ha, Postemergence, scale of 0 to 10 where 0 is no effect and 10 is complete control
[9] = Preemergence, Rate 250 g/ha, scale 0 to 10, 0 is no effect, 10 is complete control
[10] = Postemergence section (flood test species), Rate 500 g/ha
[11] = Rate 62 g/ha, Postemergence (flood test species)
[12] = flood test species, listed under Postemergence, Rate 250 g/ha, scale 0 to 10, 0 is no effect, 10 is complete control

CC(=O)C(C)n1c(=O)on(C(=O)N(c2ccc(F)cc2)C(C)C)c1=O (centres unmarked) [Compound 400]
Plant response rating, Blackgrass (blackgrass; [1]): 4
Plant response rating, Blackgrass (blackgrass; [2]): 8
Blackgrass plant response rating (blackgrass; [3]): 8
Plant response rating, Blackgrass (blackgrass; [4]): 0
Plant response rating, Blackgrass (blackgrass; [5]): 0
Blackgrass plant response rating (blackgrass; [6]): 0
Blackgrass plant response rating (blackgrass; [7]): 0
Blackgrass plant response rating (blackgrass; [8]): 0
Plant response rating, B. signalgrass (surinam grass; [1]): 2
Plant response rating, B. signalgrass (surinam grass; [2]): 3
B. signalgrass plant response rating (surinam grass; [3]): 4
Plant response rating, B. signalgrass (surinam grass; [4]): 0
Plant response rating, B. signalgrass (surinam grass; [5]): 0
B. signalgrass plant response rating (surinam grass; [6]): 2
B. signalgrass plant response rating (surinam grass; Preemergence, Rate 500 g/ha, scale of 0 to 10 where 0 is no effect and 10 is complete control): 4
B. signalgrass plant response rating (surinam grass; [8]): 0
Plant response rating, Cocklebur (cocklebur; [1]): 0
Plant response rating, Cocklebur (cocklebur; [2]): 0
Cocklebur plant response rating (cocklebur; [3]): 0
Plant response rating, Cocklebur (cocklebur; [4]): 0
Plant response rating, Cocklebur (cocklebur; [5]): 0
Cocklebur plant response rating (cocklebur; [9]): 0
Cocklebur plant response rating (cocklebur; [7]): 0
Cocklebur plant response rating (cocklebur; [8]): 0
Plant response rating, Corn (corn; [1]): 0
Plant response rating, Corn (corn; [2]): 0
Corn plant response rating (corn; [3]): 0
Plant response rating, Corn (corn; [4]): 0
Plant response rating, Corn (corn; [5]): 0
Corn plant response rating (corn; [9]): 2
Corn plant response rating (corn; [7]): 2
Corn plant response rating (corn; [8]): 0
Plant response rating, Giant foxtail (giant foxtail; [1]): 8
Plant response rating, Giant foxtail (giant foxtail; [2]): 9
Giant foxtail plant response rating (giant foxtail; [3]): 9
Plant response rating, Giant foxtail (giant foxtail; [4]): 9
Plant response rating, Giant foxtail (giant foxtail; [5]): 9
Giant foxtail plant response rating (giant foxtail; [9]): 10
Giant foxtail plant response rating (giant foxtail; [7]): 10
Giant foxtail plant response rating (giant foxtail; [8]): 5
Plant response rating, Morningglory (morningglory; [2]): 3
Morningglory plant response rating (morningglory; [3]): 6
Plant response rating, Morningglory (morningglory; [4]): 0
Plant response rating, Morningglory (morningglory; [5]): 0
Morningglory plant response rating (morningglory; [9]): 0
Morningglory plant response rating (morningglory; [7]): 0
Morningglory plant response rating (morningglory; [8]): 0
Plant response rating, Redroot pigweed (pigweed; [2]): 0
Redroot pigweed plant response rating (pigweed; [3]): 0
Plant response rating, Redroot pigweed (pigweed; [4]): 3
Plant response rating, Redroot pigweed (pigweed; [5]): 4
Redroot pigweed plant response rating (pigweed; [9]): 6
Redroot pigweed plant response rating (pigweed; [7]): 6
Redroot pigweed plant response rating (pigweed; [8]): 0
Plant response rating, Rape (rape; [2]): 0
Rape plant response rating (rape; [3]): 0
Plant response rating, Rape (rape; [4]): 0
Plant response rating, Rape (rape; [5]): 0
Rape plant response rating (rape; [9]): 0
Rape plant response rating (rape; [7]): 0
Rape plant response rating (rape; [8]): 0
Plant response rating, Soybean (soybean; [2]): 4
Soybean plant response rating (soybean; [3]): 4
Plant response rating, Soybean (soybean; [4]): 0
Plant response rating, Soybean (soybean; [5]): 0
Soybean plant response rating (soybean; [9]): 0
Soybean plant response rating (soybean; [7]): 0
Soybean plant response rating (soybean; [8]): 1
Plant response rating, Sugarbeets (sugar beet; [2]): 0
Sugarbeets plant response rating (sugar beet; [3]): 0
Plant response rating, Sugarbeets (sugar beet; [4]): 0
Plant response rating, Sugarbeets (sugar beet; [5]): 0
Sugarbeets plant response rating (sugar beet; [9]): 2
Sugarbeets plant response rating (sugar beet; [7]): 4
Sugarbeets plant response rating (sugar beet; [8]): 0
Plant response rating, Velvetleaf (velvetleaf; [2]): 0
Velvetleaf plant response rating (velvetleaf; [3]): 0
Plant response rating, Velvetleaf (velvetleaf; [4]): 0
Plant response rating, Velvetleaf (velvetleaf; [5]): 0
Velvetleaf plant response rating (velvetleaf; [9]): 0
Velvetleaf plant response rating (velvetleaf; [7]): 2
Velvetleaf plant response rating (velvetleaf; [8]): 0
Wheat plant response rating (wheat; [3]): 0
Plant response rating, Wheat (wheat; [4]): 0
Plant response rating, Wheat (wheat; [5]): 0
Wheat plant response rating (wheat; [9]): 0
Wheat plant response rating (wheat; [7]): 0
Wheat plant response rating (wheat; [8]): 0
Wild oats plant response rating (wild oat; [3]): 0
Plant response rating, Wild oats (wild oat; [4]): 0
Plant response rating, Wild oats (wild oat; [5]): 0
Wild oats plant response rating (wild oat; [9]): 0
Wild oats plant response rating (wild oat; [7]): 0
Wild oats plant response rating (wild oat; [8]): 0
Rice plant response rating (rice; [10]): 0
Rice plant response rating (rice; [11]): 0
Plant response rating, Rice (rice; [12]): 0
S. Flatsedge plant response rating (smallflower flatsedge; [10]): 0
S. Flatsedge plant response rating (smallflower flatsedge; [11]): 0
Plant response rating, S. Flatsedge (smallflower flatsedge; [12]): 0
Plant response rating, Ducksalad (duck salad; Postemergence (flood test), Rate 125 g/ha): 0
Ducksalad plant response rating (duck salad; [10]): 0
Ducksalad plant response rating (duck salad; [11]): 0
Plant response rating, Ducksalad (duck salad; flood test species, listed under Postemergence, Rate 250 g/ha): 0
